Article PMC6072100, “Exploring the links between peptoid antibacterial activity and toxicity” (MedChemComm, 2017)
Read-outs that look alike come from different tables or passages of the source. Square brackets hold non-standard residues; d marks the D form. Ends that are not written are not given here. Peptide text beside a SMILES is read from it. Nspe = C[C@H](NCC(=O)O)c1ccccc1; NhArg = N=C(N)NCCCCNCC(=O)O; Nphe = O=C(O)CNCc1ccccc1; Nlys = NCCCCNCC(=O)O

Key:
[1] = Skin cell toxicity assay with HaCaT (alamarBlue); format: cell-based, human; conditions: human, HaCaT cells (keratinocytes), ED50 HaCaT
Method: (§1) The activity of our peptoid library was assessed against both bacterial and mammalian cells to gain a broader understanding of the factors that lead to effective and selective antimicrobial peptoids. We screened for broad-spectrum antibacterial activity against Gram-negative (Escherichia coli and Pseudomonas aeruginosa) and Gram-positive (Staphylococcus aureus and S. epidermidis) bacteria. The toxicity of the library was also assessed against two mammalian cell lines; HaCaT spontaneously transformed aneuploid keratinocytes were employed to model toxicity against human skin cells and HepG2, a cell line derived from a human liver carcinoma, were used as a study on polarised human hepatocytes. Detailed methods for these assays can be found in the ESI. ^‡ […]
(§2) Please note – ED50, the median effective dose, was defined as the dose that kills 50% of cells.
(§3) Cytotoxicity analyses were performed in 96-well plates (Costar, Fisher Scientific) using alamarBlue® (Invitrogen) for cell viability detection using a modified protocol as described previously. HepG2 or HaCaT cells were subcultured at 37 °C, 5% CO2 in DMEM high glucose supplemented with heat-inactivated foetal bovine sera (FBS, 10%; Biosera Ltd) and penicillin/streptomycin (P/S, 1%). Cells were counted using a Neubauer Improved Haemocytometer. HepG2 cells were seeded 1 day prior to treatment in 96 well plates at a concentration of 2 × 10^5 cells per mL in 100 μL of medium (2 × 10^4 cells per well). Then cells were pre-incubated with the compounds in triplicate in a dilution series in triplicate from 2–100 μM (5 mM stock solutions in DMSO diluted from 100 μM to 3 μM; untreated cells with DMSO as a negative control) in 50 μl of the media for 1 hour. Afterwards, 40 μL were removed from each well before the addition of 90 μL of the media, followed by incubation for 24 hours at 37 °C, 5% CO2. Then, 10 μL of alamarBlue® (Invitrogen) was added to each well before a 2 hour incubation prior to assessing cell viability using a fluorescent plate reader (Biotek; Ex 560 nm/Em 600 nm). All data were measured in triplicate on a minimum of two occasions to ensure a robust data set was collected. The ED50 values were calculated from the dose response results achieved from the serial dilutions. […]
(§4) Cells were counted using a Neubauer Improved
(§5) Haemocytometer. […]
(§6) µM to 3 µM; untreated cells with DMSO as a negative control) in 50 µl of the media for 1 hour.
(§7) Afterwards, 40 µL were removed from each well before the addition of 90 µL of the media, followed by incubation for 24 hours at 37 °C, 5% CO2. Then, 10 µL of alamarBlue® (Invitrogen) was added to each well before a 2 hour incubation prior to assessing cell viability using a fluorescent plate reader (Biotek; Ex 560 nm / Em 600 nm). All data was measured in triplicate on a minimum of two occasions to ensure a robust data set was collected. The ED50 values were calculated from the dose response results achieved from the serial dilutions.
(§8) Skin Cell Toxicity assay with HaCaT […]
(§9) alamarBlue® (Invitrogen) for cell viability detection. HaCaT cells were subcultured at 37 °C, 5% CO2 in DMEM high glucose supplemented with heat-inactivated foetal bovine sera (FBS, 10%; Biosera Ltd) and penicillin/streptomycin (P/S, 1%). Cells were counted using a Neubauer Improved Haemocytometer. HaCaT cells were seeded in the plates 24 hours prior to treatment in 96 well plates at a concentration of 2x10^5 cells/mL in 100 µL of medium (2x10^4 cells/well).
(§10) Empty wells were filled with 100 µL PBS. After 24 hours, cells were incubated with the compounds in a dilution series in triplicate from 2 – 100 µM (5 mM stock solutions in DMSO diluted from 100 µM to 3 µM; Amphotericin B was used as a positive control and untreated cells with DMSO as a negative control) in 50 µL of the media for 1 hour. Afterwards, 40 µl was removed from each well, 90 µL of medium was added to each well and the cells incubated for 24 hours at 37 °C, 5% CO2. 10 µL of alamarBlue® (Invitrogen) was added to each well before […]

[2] = test system: HaCaT cells; test: Skin cell toxicity assay with HaCaT (alamarBlue); format: cell-based, human; conditions: human, HaCaT cells (keratinocytes), 24 h
Method: as §1, §2, §3, §4, §5, §6, §7, §8, §9, §10

[3] = test system: Pseudomonas aeruginosa PA01 (ATCC 15692); format: cell-based; conditions: lowest concentration completely inhibiting growth, 37 °C, 16 h; range 2–100 μM
Method: (§11) Escherichia coli K-12 wild-type strain (W3110/ATCC27325, F^–, λ^–, rpoS(Am), rph-1, Inv(rrnD-rrnE)), Pseudomonas aeruginosa PA01 (ATCC 15692) Staphylococcus aureus (3R7089 strain Oxford/ATCC9144) and Staphylococcus epidermidis (laboratory strain from clinical isolate) were selected for bacteriological studies as representative Gram-negative (E. coli and P. aeruginosa) and Gram-positive (S. aureus and S. epidermidis) species. Bacterial cultures were prepared by streaking bacterial strains onto LB agar plates with an inoculation loop and incubated overnight at 37 °C. A single colony was selected and placed in 5 mL of Iso-sensitest broth (Oxoid, ThermoScientific) and incubated with shaking for 16–18 h at 37 °C to provide liquid cultures for testing.
(§12) MIC values were obtained according to the protocol described by J. M. Andrews et al.[58] and were conducted in 96-well plates (Sarstedt). Bacteria were grown from overnight cultures in Iso-sensitest broth to an A650nm of 0.07 equivalent to a 0.5 MacFarland standard (240 μM BaCl2 in 0.18 M H2SO4). This culture was diluted ten-fold with Iso-sensitest broth before use. Peptoids were initially dissolved in DMSO (5 mM) and diluted further in Iso-sensitest broth to achieve a concentration range of 4–200 μM using 2-fold serial dilutions. 50 μl of inoculum and 50 μl of peptoid solution were added to each test well (final concentration range of 2–100 μM). Experiments were performed in triplicate. A positive control for bacterial growth contained only the inoculum and Iso-sensitest broth. Other controls contained the inoculum and serial dilutions of ampicillin (from 250 μg mL^–1 to 2 μg mL^–1), serial dilutions of DMSO and the inoculum to confirm no inhibitory effect on bacterial growth, and Iso-sensitest broth alone as a sterile control. […] Quantitative data was attained from absorbance values using a Biotek Synergy H4 plate reader.
(§13) Antibacterial MIC determination
(§14) Escherichia coli K-12 wild-type strain (W3110 / ATCC27325, F-, λ-, rpoS(Am), rph-1, Inv(rrnD-rrnE)), Pseudomonas aeruginosa PA01 (ATCC 15692) Staphylococcus aureus (3R7089 strain Oxford / ATCC9144) and Staphylococcus epidermidis (laboratory strain from clinical isolate) were selected for bacteriological studies as representative Gram-negative (E. coli and P. aeruginosa) and Gram-positive (S. aureus and S. epidermidis) species. Bacterial cultures were prepared by streaking bacterial strains onto LB agar plates with an inoculation loop and incubated overnight at 37 °C.
(§15) A single colony was selected and placed in 5 mL of Iso-sensitest broth (Oxoid, ThermoScientific) and incubated with shaking for 16-18 h at 37 °C to provide liquid […]
(§16) MIC values were obtained according to the protocol described by J. M. Andrews et al.1 and were conducted in 96-well plates (Sarstedt). Bacteria were grown from overnight cultures in Iso-sensitest broth to an A650nm of 0.07 equivalent to a 0.5 MacFarland standard (240 μM BaCl2 in 0.18 M H2SO4). This culture was diluted ten-fold with Iso-sensitest broth before use. Peptoids were initially dissolved in DMSO (5 mM) and diluted further in Iso-sensitest broth to achieve a concentration range of 4 – 200 µM using 2-fold serial dilutions. 50 μl of inoculum and 50 μl of peptoid solution were added to each test well (final concentration range of 2 – 100 µM). Experiments were performed in triplicate. A positive control for bacterial growth contained only the inoculum and Iso-sensitest broth. Other controls contained the inoculum and serial dilutions of ampicillin (from 250 µg/mL to 2 µg/mL), serial dilutions of DMSO and the inoculum to confirm no inhibitory effect on bacterial growth, and Iso-sensitest broth alone as a sterile control. […]
(§17) growth after incubation at 37 °C for 16 h with shaking. Quantitative data was attained from absorbance values using a Biotek Synergy H4 plate reader.

[4] = test system: Escherichia coli K-12 wild-type strain (W3110/ATCC27325); format: cell-based; conditions: lowest concentration completely inhibiting growth, 37 °C, 16 h; range 2–100 μM
Method: as §11, §12, §13, §14, §15, §16, §17

[5] = test system: Staphylococcus aureus (3R7089 strain Oxford/ATCC9144); format: cell-based; conditions: lowest concentration completely inhibiting growth, 37 °C, 16 h; range 2–100 μM
Method: as §11, §12, §13, §14, §15, §16, §17

[6] = test system: E. coli; set-up: method as in PMID 10681325; conditions: cited from earlier work
[7] = test system: S. epidermidis; set-up: method as in PMID 10681325, PMID 3299384; conditions: cited from earlier work
[8] = test system: S. aureus; set-up: method as in PMID 10681325, PMID 3299384; conditions: cited from earlier work
[9] = test system: E. coli; set-up: method as in PMID 10681325, PMID 3299384; conditions: cited from earlier work
[10] = test system: Staphylococcus epidermidis (laboratory strain from clinical isolate); format: cell-based; conditions: lowest concentration completely inhibiting growth, 37 °C, 16 h; range 2–100 μM
Method: as §11, §12, §13, §14, §15, §16, §17

Row | Compound | CC50 at 24 h [1] [µM] | ED50 HaCaT [2] [µM] | MIC P. aeruginosa [3] [µM] | MIC E. coli [4] [µM] | MIC S. aureus [5] [µM] | also measured
1 | C[C@@H](c1ccccc1)N(CC(N)=O)C(=O)CN(C(=O)CN(CCCCNC(=N)N)C(=O)CN(C(=O)CN(C(=O)CN(CCCCNC(=N)N)C(=O)CN(C(=O)CN(C(=O)CN(CCCCN)C(=O)CN(C(=O)CN(C(=O)CNCCCCN)[C@@H](C)c1ccccc1)[C@@H](C)c1ccccc1)[C@@H](C)c1ccccc1)[C@@H](C)c1ccccc1)[C@@H](C)c1ccccc1)[C@@H](C)c1ccccc1)[C@@H](C)c1ccccc1 [Peptoid 41, (NLysNspeNspe)2(NhArgNspeNspe)2] (H-[Nlys][Nspe][Nspe][Nlys][Nspe][Nspe][NhArg][Nspe][Nspe][NhArg][Nspe][Nspe]-NH2) | 100 | >100 | 34 | 17 | 17 | –
2 | cecropin A (KWKLFKKIEKVGQNIRDGIIKAGPAVAVVGQATQIAK; ends and bridges not checked; UniProt P01507 27-63, looked up) [natural antimicrobial peptide (AMP) described in the literature] | – | – | – | – | – | concentration shown to kill 90% of E. coli [6]: 2 µM
3 | Magainin 2 | – | – | – | – | – | MIC S. epidermidis [7]: 10 μg mL^–1; MIC S. epidermidis ([7]; value in brackets, in μM): 4 µM; MIC S. aureus [8]: 50 μg mL^–1; MIC S. aureus ([8]; value in brackets, in μM): 20 µM; MIC E. coli [9]: 5 μg mL^–1; MIC E. coli ([9]; value in brackets, in μM): 2 µM
4 | N=C(N)NCCCCNCC(=O)N(CC(=O)N(CC(=O)N(CCCCNC(=N)N)CC(=O)N(CC(=O)N(CC(=O)N(CCCCNC(=N)N)CC(=O)N(CC(=O)N(CC(=O)N(CCCCNC(=N)N)CC(=O)N(CC(=O)N(CC(N)=O)Cc1ccccc1)Cc1ccccc1)Cc1ccccc1)Cc1ccccc1)Cc1ccccc1)Cc1ccccc1)Cc1ccccc1)Cc1ccccc1 [Peptoid 33, (NhArgNpheNphe)4] (H-[NhArg][Nphe][Nphe][NhArg][Nphe][Nphe][NhArg][Nphe][Nphe][NhArg][Nphe][Nphe]-NH2) | 100 | >100 | 25 | 6 | – | MIC S. epidermidis [10]: 2 µM
5 | C[C@@H](c1ccccc1)N(CC(N)=O)C(=O)CN(C(=O)CN(CCCCN)C(=O)CN(C(=O)CN(C(=O)CN(CCCCN)C(=O)CN(C(=O)CN(C(=O)CN(CCCCNC(=N)N)C(=O)CN(C(=O)CN(C(=O)CNCCCCN)[C@@H](C)c1ccccc1)[C@@H](C)c1ccccc1)[C@@H](C)c1ccccc1)[C@@H](C)c1ccccc1)[C@@H](C)c1ccccc1)[C@@H](C)c1ccccc1)[C@@H](C)c1ccccc1 [Peptoid 43, (NLysNspeNspe)(NhArgNspeNspe)(NLysNspeNspe)2] (H-[Nlys][Nspe][Nspe][NhArg][Nspe][Nspe][Nlys][Nspe][Nspe][Nlys][Nspe][Nspe]-NH2) | 33 | – | 17 | 17 | 17 | –
